Assay results published in ChEMBL document CHEMBL4425175, “Synthesis and preliminary in vitro kinase inhibition evaluation of new diversely substituted pyrido[3,4-g]quinazoline derivatives” (Bioorg Med Chem Lett, 2016).

Assays:
[1] = molecular target: Cyclin-dependent kinase 5/CDK5 activator 1 (Homo sapiens) (UniProt Q00535+Q15078); test: Inhibition of human recombinant CDK5/p25 using histone1 as substrate at 10 uM after 30 mins in presence of [gamma33P] ATP by scintillation counting; assay type: protein-complex assay
[2] = molecular target: Dual specificity protein kinase CLK1 (Homo sapiens) (UniProt P49759); test: Inhibition of GST-fused human recombinant CLK1 expressed in Escherichia coli using GRSRSRSRSRSR peptide as substrate at 10 uM
[3] = molecular target: Dual specificity tyrosine-phosphorylation-regulated kinase 1A (Rattus norvegicus) (UniProt Q63470); test: Inhibition of GST-fused rat recombinant DYRK1A expressed in Escherichia coli using myelin basic protein as substrate at 10 uM after 30 mins in presence of [gamma33P] ATP by scintillation counting
Sus scrofa = organism: Sus scrofa; test: Inhibition of porcine brain CK1delta/epsilon using RRKHAAIGpSAYSITA as substrate at 10 uM after 30 mins in presence of [gamma33P] ATP by scintillation counting
[4] = molecular target: Glycogen synthase kinase-3 (Sus scrofa) (UniProt B2LUN4+I6LNT8); test: Inhibition of porcine brain GSKalpha/beta using GS-1 as substrate at 10 uM after 30 mins in presence of [gamma33P] ATP by scintillation counting

Chain of Cyclin-dependent kinase 5/CDK5 activator 1 (Homo sapiens) (Q00535 whole entry, the tested form may be a part): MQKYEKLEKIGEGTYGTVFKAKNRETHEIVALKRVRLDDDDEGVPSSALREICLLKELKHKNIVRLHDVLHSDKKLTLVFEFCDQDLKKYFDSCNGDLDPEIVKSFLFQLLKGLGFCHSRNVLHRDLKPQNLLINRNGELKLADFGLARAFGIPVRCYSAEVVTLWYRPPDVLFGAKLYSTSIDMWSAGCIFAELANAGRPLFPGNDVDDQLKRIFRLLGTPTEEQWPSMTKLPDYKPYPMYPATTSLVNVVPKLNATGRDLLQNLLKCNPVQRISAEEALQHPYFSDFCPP
Chain of Cyclin-dependent kinase 5/CDK5 activator 1 (Homo sapiens) (Q15078 99-307 partner limits assumed): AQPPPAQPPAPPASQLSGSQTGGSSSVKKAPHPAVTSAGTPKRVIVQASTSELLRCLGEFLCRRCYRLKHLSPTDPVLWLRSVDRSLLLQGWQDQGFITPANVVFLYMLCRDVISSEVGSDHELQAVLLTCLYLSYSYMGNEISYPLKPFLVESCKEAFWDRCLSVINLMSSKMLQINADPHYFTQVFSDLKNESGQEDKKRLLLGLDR
Chain of Dual specificity protein kinase CLK1 (Homo sapiens) (P49759 whole entry, looked up, the tested form may be a part): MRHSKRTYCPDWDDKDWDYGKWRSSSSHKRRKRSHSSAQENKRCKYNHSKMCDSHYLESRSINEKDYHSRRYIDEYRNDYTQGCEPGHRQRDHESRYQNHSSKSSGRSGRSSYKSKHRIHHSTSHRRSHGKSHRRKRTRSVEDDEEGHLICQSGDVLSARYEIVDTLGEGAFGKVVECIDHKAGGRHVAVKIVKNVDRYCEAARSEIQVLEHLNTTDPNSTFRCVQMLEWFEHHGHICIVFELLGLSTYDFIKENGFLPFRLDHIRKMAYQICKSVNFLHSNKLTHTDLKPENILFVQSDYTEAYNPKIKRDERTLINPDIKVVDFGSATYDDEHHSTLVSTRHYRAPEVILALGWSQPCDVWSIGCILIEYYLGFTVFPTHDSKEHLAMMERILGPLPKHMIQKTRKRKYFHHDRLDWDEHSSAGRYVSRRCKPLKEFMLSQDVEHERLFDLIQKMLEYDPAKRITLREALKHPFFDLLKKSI

With `Nc1ncc2cc3cnccc3c([N+](=O)[O-])c2n1` as the molecule, how does the inhibition [1] read?
Its inhibition is 44%.

What about the inhibition [2] of the same molecule?
The inhibition was 98%.

What about the inhibition [3] of the same molecule?
The inhibition was 95%.

And the inhibition (Sus scrofa)?
The inhibition was 91%.

And the inhibition [4]?
The inhibition was 75%.

`Nc1ncc2c(-c3ccccc3)c3cnccc3c(N)c2n1` was tested. Which inhibition [1] did it give?
Its inhibition is 33%.

And the inhibition [2]?
The inhibition was 32%.

What about the inhibition [3] of the same molecule?
The inhibition was 49%.

What about the inhibition (Sus scrofa) of the same molecule?
The inhibition was 55%.

What about the inhibition [4] of the same molecule?
The inhibition was 25%.

What does the source list for `Nc1ncc2cc3cnccc3c(N)c2n1`?
inhibition [1]: 70%; inhibition [2]: 100%; inhibition [3]: 99%; inhibition (Sus scrofa): 76%; inhibition [4]: 54%

`CCc1c2cnccc2c([N+](=O)[O-])c2nc(N)ncc12` was tested. Which inhibition [1] did it give?
Its inhibition is 96%.

And the inhibition [2]?
The inhibition was 31%.

What about the inhibition [3] of the same molecule?
The inhibition was 80%.

What about the inhibition (Sus scrofa) of the same molecule?
The inhibition was 87%.

And the inhibition [4]?
Its inhibition is 98%.

How did the inhibition [1] turn out when `CCCCc1c2cnccc2c([N+](=O)[O-])c2nc(N)ncc12` was run?
The inhibition was 91%.

What about the inhibition [2] of the same molecule?
Its inhibition is 31%.

What about the inhibition [3] of the same molecule?
Its inhibition is 86%.

What about the inhibition (Sus scrofa) of the same molecule?
The inhibition was 57%.

What about the inhibition [4] of the same molecule?
Its inhibition is 100%.

Which results are given for `Cc1c2cnccc2c(N)c2nc(N)ncc12`?
inhibition [1]: 54%; inhibition [2]: 30%; inhibition [3]: 90%; inhibition (Sus scrofa): 70%; inhibition [4]: 43%

How did the inhibition [1] turn out when `Nc1ncc2c(Br)c3cnccc3c([N+](=O)[O-])c2n1` was run?
Its inhibition is 0%.

And the inhibition [2]?
Its inhibition is 28%.

What about the inhibition [3] of the same molecule?
The inhibition was 76%.

And the inhibition (Sus scrofa)?
Its inhibition is 34%.

What about the inhibition [4] of the same molecule?
Its inhibition is 41%.

With `Nc1ncc2c(Cc3ccccc3)c3cnccc3c([N+](=O)[O-])c2n1` as the molecule, how does the inhibition [1] read?
The inhibition was 2%.

And the inhibition [2]?
Its inhibition is 37%.

And the inhibition [3]?
Its inhibition is 40%.

And the inhibition (Sus scrofa)?
The inhibition was 64%.

And the inhibition [4]?
Its inhibition is 14%.

What does the source list for `CCCCc1c2cnccc2c(N)c2nc(N)ncc12`?
inhibition [1]: 0%; inhibition [2]: 31%; inhibition [3]: 52%; inhibition (Sus scrofa): 42%; inhibition [4]: 34%

With `Nc1ncc2c(Cc3ccccc3)c3cnccc3c(N)c2n1` as the molecule, how does the inhibition [1] read?
The inhibition was 4%.

And the inhibition [2]?
Its inhibition is 29%.

What about the inhibition [3] of the same molecule?
The inhibition was 49%.

And the inhibition (Sus scrofa)?
Its inhibition is 76%.

What about the inhibition [4] of the same molecule?
Its inhibition is 12%.

With `Nc1ncc2c(-c3ccccc3)c3cnccc3c([N+](=O)[O-])c2n1` as the molecule, how does the inhibition [1] read?
The inhibition was 25%.

What about the inhibition [2] of the same molecule?
Its inhibition is 30%.

And the inhibition [3]?
The inhibition was 53%.

What about the inhibition (Sus scrofa) of the same molecule?
The inhibition was 49%.

What about the inhibition [4] of the same molecule?
The inhibition was 74%.

What does the source list for `Cc1c2cnccc2c([N+](=O)[O-])c2nc(N)ncc12`?
inhibition [1]: 88%; inhibition [2]: 30%; inhibition [3]: 82%; inhibition (Sus scrofa): 83%; inhibition [4]: 78%

What does the source list for `CCc1c2cnccc2c(N)c2nc(N)ncc12`?
inhibition [1]: 61%; inhibition [2]: 31%; inhibition [3]: 65%; inhibition (Sus scrofa): 84%; inhibition [4]: 79%
